Article PMC4729137, “Functional analysis of androgen receptor mutations that confer anti-androgen resistance identified in circulating cell-free DNA from prostate cancer patients” (Genome Biology, 2016)
Substitutions are numbered along the chain they refer to.

Assays:
T878A-AR [1] = molecular target: T1, T878A-AR (Homo sapiens, UniProt P10275, T878A); format: cell-based; set-up: Full-length human AR (WT-AR) was encoded on a pcDNA3.1 expression plasmid; expressed in transfected cells; host or cells: PC3 cells; details: AR mutant T878A; transfected PC3 cells; 0.1 nM R1881; drug 0 to 50 μM
T1 sequence (P10275 1-920 T878A): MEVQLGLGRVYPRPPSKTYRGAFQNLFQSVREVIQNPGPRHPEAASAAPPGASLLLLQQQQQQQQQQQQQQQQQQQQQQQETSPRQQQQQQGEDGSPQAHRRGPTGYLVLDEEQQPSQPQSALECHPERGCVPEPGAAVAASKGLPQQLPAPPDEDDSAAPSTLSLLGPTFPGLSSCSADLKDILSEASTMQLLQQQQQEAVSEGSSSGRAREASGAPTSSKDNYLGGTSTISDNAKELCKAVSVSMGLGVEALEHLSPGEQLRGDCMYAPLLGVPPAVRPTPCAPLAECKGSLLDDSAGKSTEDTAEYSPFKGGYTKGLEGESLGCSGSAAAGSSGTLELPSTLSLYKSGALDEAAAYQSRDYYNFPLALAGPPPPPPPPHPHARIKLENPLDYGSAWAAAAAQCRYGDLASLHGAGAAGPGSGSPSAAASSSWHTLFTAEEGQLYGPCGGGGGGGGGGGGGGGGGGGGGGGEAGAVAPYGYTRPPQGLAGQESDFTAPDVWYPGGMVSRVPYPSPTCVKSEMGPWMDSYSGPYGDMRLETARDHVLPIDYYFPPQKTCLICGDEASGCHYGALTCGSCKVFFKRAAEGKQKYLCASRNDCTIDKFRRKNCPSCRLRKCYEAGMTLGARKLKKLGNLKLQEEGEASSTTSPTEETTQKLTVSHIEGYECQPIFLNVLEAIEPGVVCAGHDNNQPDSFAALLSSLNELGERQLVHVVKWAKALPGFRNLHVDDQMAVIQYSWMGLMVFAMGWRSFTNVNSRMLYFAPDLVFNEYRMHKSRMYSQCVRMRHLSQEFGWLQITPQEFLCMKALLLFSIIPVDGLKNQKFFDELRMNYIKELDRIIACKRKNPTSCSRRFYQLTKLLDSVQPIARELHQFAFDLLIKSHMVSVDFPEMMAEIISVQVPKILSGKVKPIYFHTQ
Text: Full-length human AR (WT-AR) was encoded on a pcDNA3.1 expression plasmid (Life technologies). The LBD point mutations (single and multiple) were generated using the QuikChange II Site-Directed Mutagenesis Kit (Agilent Technologies) as per manufacturer’s instructions using WT-AR as the template. The mutagenic oligonucleotide primers were designed individually with the desired mutation in the middle of the primer with approximately 10 to 15 bases of correct sequence on both sides.
PC3 cells were seeded and transfected as described above. […] A non-stimulated/no R1881 control was used. After 24 h, cells were lysed and AR-dependent luciferase activity was quantified. Each concentration was assayed in quadruplicate n = 4, with a biological replicate of n = 3. Results were averaged and normalized by expressing them as a percentage of WT AR activity.

T878A-AR [2] = molecular target: T1, T878A-AR; test: cell-based
D880E-AR = molecular target: T2, D880E-AR (Homo sapiens, UniProt P10275, D880E); test: cell-based
T2 sequence (P10275 1-920 D880E): T1 sequence (P10275 1-920 T878A) with A878T, D880E

Structure (SMILES)	Agonist response to treatment (T878A-AR [1])	EC50 (T878A-AR [2]) [nM]	EC50 (D880E-AR) [nM]
CC(C)(O)C(=O)Nc1ccc([N+](=O)[O-])c(C(F)(F)F)c1 [Hydroxyflutamide, hydroxyflutamide]	Partial	–	–
C[C@]12CCC(=O)C=C1CC[C@@H]1[C@@H]2[C@@H](O)C[C@@]2(C)[C@H]1CC[C@]2(O)C(=O)CO [hydrocortisone]	–	> 500	> 500
